Experiment [1] deals with Hep 3B2. Kind of experiment: Growth inhibition of human Hep3B cells incubated for 72 hrs by CCK-8 assay. The class given is functional. (In general: Formazan colour is commonly taken as a measure of viable cells.)
Experiment [2] concerns the target Mothers against decapentaplegic homolog 2 (Homo sapiens) (UniProt Q15796). Kind of experiment: Inhibition of TGFbeta-induced SMAD2 phosphorylation at S465/467 residues in serum-starved human Hep3B cells preincubated with compound for 30 mins followed by TGFbeta addition and measured after 30 mins by Western blotting analysis. The experiment is classed as cell-based. The following applies: dose 1-10 µM, time 60.0 min. In general terms: Immunoblotting shows a protein as a band on a membrane.

The nature of experiment [3]: Inhibition of TGFbeta-dependent SMAD2/3 phosphorylation in mouse NIH3T3 cells incubated for 24 hrs by luciferase reporter assay. The note with it: NIH3T3, 24 h. (In general: In a reporter assay the amount or activity of a reporter protein is the signal.)
In experiment [4] the test system is Hep 3B2. The experiment can be described thus: Synergistic antiproliferative activity against human Hep3B cells at 1.56 to 3.12 uM in presence of sorafenib. The class given is functional, cell-based. The note with it: dose 1.56-3.12 µM.
Experiment [5] relates to Hep 3B2. The experiment can be described thus: Induction of apoptosis in human Hep3B cells at 10 uM incubated for 48 hrs by Annexin V-FITC/PI staining based flow cytometry. The class given is functional, cell-based.
In experiment [6] the test system is Hep 3B2. Kind of experiment: Induction of apoptosis in human Hep3B cells at 10 uM incubated for 48 to 72 hrs in presence of sorafenib by Annexin V-FITC/PI staining based flow cytometry. The experiment is classed as functional, cell-based. The following applies: time 48-72 hrs.
The subject of experiment [7] is Hep 3B2. Kind of experiment: Induction of apoptosis in human Hep3B cells at 5 uM incubated for 72 hrs by Annexin V-FITC/PI staining based flow cytometry. The experiment is classed as functional, cell-based.

Activity calls are given as the source filed them. The rule behind the calls is not given here.

Sequence of Mothers against decapentaplegic homolog 2 (Homo sapiens) (Q15796 whole entry): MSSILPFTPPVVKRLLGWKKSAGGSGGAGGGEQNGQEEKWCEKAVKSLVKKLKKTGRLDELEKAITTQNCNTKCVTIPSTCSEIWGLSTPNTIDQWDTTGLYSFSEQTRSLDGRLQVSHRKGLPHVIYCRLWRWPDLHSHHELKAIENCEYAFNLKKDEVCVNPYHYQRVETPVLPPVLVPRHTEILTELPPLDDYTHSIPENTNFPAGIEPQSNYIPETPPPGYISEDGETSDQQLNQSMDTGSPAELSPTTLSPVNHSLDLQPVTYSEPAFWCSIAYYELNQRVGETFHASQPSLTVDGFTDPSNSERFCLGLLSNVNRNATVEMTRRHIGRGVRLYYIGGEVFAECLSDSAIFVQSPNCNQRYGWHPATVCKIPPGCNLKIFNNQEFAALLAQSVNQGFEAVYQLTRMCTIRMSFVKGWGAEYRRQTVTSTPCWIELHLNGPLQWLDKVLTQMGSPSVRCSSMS

One may read the GI50 as the concentration that inhibits growth by half. The EC50 is the concentration giving half of the maximal effect. For `Cc1nc(NS(=O)(=O)c2c[nH]c3ncccc23)ccc1Cl`, it took 2280 nM to inhibit growth in experiment [1] by half (GI50). Further, the inhibition entry in experiment [2] is “Dose-dependent-effect”. For the same compound, in experiment [3], a half-maximal effect (EC50) was put at 160 nM. Moreover, in experiment [4], the Activity result is “Active; Compound Showed Moderate Activity”. The result in experiment [5] and in experiment [6] was Active.

For the compound `CNC(=O)c1cc(Oc2ccc(NC(=O)Nc3ccc(Cl)c(C(F)(F)F)c3)cc2)ccn1`, the outcome in experiment [7] was Active.

In turn, `O=S(=O)(Nc1ccc(Cl)cn1)c1c[nH]c2ncccc12` displayed a GI50 in experiment [1] of 2860 nM. Besides, it took 214 nM to reach a half-maximal effect in experiment [3] (EC50).

Take `COc1ccc(NS(=O)(=O)c2c[nH]c3ncccc23)cc1`: the GI50 in experiment [1] was determined as 5710 nM. Besides, in experiment [3], the EC50 worked out at 534 nM.

In experiment [1], `Cc1cccc(-c2nn3c(c2-c2ccnc4ccc(C(N)=O)cc24)CCC3)n1` [GALUNISERTIB] yielded a GI50 of 1070 nM. The inhibition entry in experiment [2] was “Dose-dependent-effect”. In addition, the response in experiment [3] was half-maximal at 47.7 nM (EC50).

Values taken from ChEMBL document CHEMBL6182878, “Discovery of novel transforming growth factor β type 1 receptor inhibitors through structure-based virtual screening, preliminary structure-activity relationship study, and biological evaluation in hepatocellular carcinoma” (Bioorg Med Chem, 2025).
